Laboratory results as given in patent US7699995B2, “Water treatment method” (priority 2006, dated 2010).
In brackets after ≈: the same amount, converted by molar mass. Where two headings read alike, the source gives them in different places.

Key:
Format in all cases: cell-based
[1] = test system: natural, resident populations of Mycobacterium; experiment: Eradication of mycobacteria in naturally contaminated in-use metalworking fluids; details: for No. of Fluids with ≧99% Kill (2-log reduction): of six fluids, 48 hours
Method: A comparative study was conducted evaluating six metalworking fluid biocides versus natural, resident populations of Mycobacterium from six in-use metalworking fluids. CMIT/MIT, CMIT/MIT/MCC, MIT, BIT, triazine, and PCMC microbicides were tested under controlled laboratory conditions to determine their efficacy at the maximum manufacturer's recommended dose rate (Table 2). The metalworking fluids were known to contain high levels of mycobacteria prior to dosing with biocides. Samples were then dosed with biocides, incubated with agitation at room temperature and viable mycobacteria counts determined after 48 hours by plating onto Middlebrook 7H10 medium, with Tween 80, glycerin, cyclohexamide, chloramphenicol, and gentamycin to suppress the growth of unwanted microorganisms.
The six metalworking fluid samples containing mycobacteria study from Example 7, were also tested using the same biocides with dosing at 50% of the maximum manufacturer's recommended rate (Table 2) under the same conditions. These metalworking fluids were known to contain high levels of mycobacteria prior to dosing with biocides. Samples were then dosed with biocides, incubated with agitation at room temperature and viable mycobacteria counts determined after 48 hours by plating onto Middlebrook 7H10 medium, with Tween 80, glycerin, cyclohexamide, chloramphenicol, and gentamycin to suppress the growth of unwanted microorganisms.

[2] = test system: Rhodotorula rubra #156; experiment: MIC at pH 7.1 or pH 9.0, half strength TSB; details: three days; for MIC: Rhodotorula, 72 h, read-out: Minimum Inhibitory Concentration
Method: (§1) Minimum inhibitory concentration (MIC) studies were conducted to determine the lowest level of biocide required to inhibit growth of bacteria and fungi. Tests were conducted in 96-well microtiter plates. Biocides were added to growth media in the plates and serially diluted to obtain a range of concentrations. Tests were conducted in one-half strength trypticase soy broth (TSB; adjusted to pH 7.1 or pH 9.0). Bacteria and fungi were added to samples at 10^6 colony forming units per ml and incubated at 30° C. for three days. MIC values were determined visually on a growth no-growth basis.

[3] = test system: Aspergillus niger #128; experiment: MIC at pH 7.1 or pH 9.0, half strength TSB; details: three days; for MIC: Aspergillus niger, 72 h, read-out: Minimum Inhibitory Concentration
Method: as §1

[4] = test system: Pseudomonas aeruginosa #13; experiment: MIC at pH 7.1 or pH 9.0, half strength TSB; details: three days; for MIC: Pseudomonas aeruginosa, 72 h, read-out: Minimum Inhibitory Concentration
Method: as §1

[5] = test system: Pseudomonas pseudoalcaligenes #15; experiment: MIC at pH 7.1 or pH 9.0, half strength TSB; details: three days; for MIC: Ectopseudomonas oleovorans, 72 h, read-out: Minimum Inhibitory Concentration
Method: as §1

[6] = test system: Pseudomonas diminuta #99; experiment: MIC at pH 7.1 or pH 9.0, half strength TSB; details: three days; for MIC: Brevundimonas diminuta, 72 h, read-out: Minimum Inhibitory Concentration
Method: as §1

[7] = test system: Alcaligenes xylosoxydans #95; experiment: MIC at pH 7.1 or pH 9.0, half strength TSB; details: three days; for MIC: Achromobacter xylosoxidans, 72 h, read-out: Minimum Inhibitory Concentration
Method: as §1

[8] = test system: Streptomyces sp. #130; experiment: MIC at pH 7.1 or pH 9.0, half strength TSB; details: three days; for MIC: Streptomyces, 72 h, read-out: Minimum Inhibitory Concentration
Method: as §1

[9] = test system: Alcaligenes faecalis #93; experiment: MIC at pH 7.1 or pH 9.0, half strength TSB; details: three days; for MIC: Alcaligenes faecalis, 72 h, read-out: Minimum Inhibitory Concentration
Method: as §1

[10] = test system: Aspergillus sp. #120; experiment: MIC at pH 7.1 or pH 9.0, half strength TSB; details: three days; for MIC: Aspergillus, 72 h, read-out: Minimum Inhibitory Concentration
Method: as §1

[11] = test system: Mycobacterium chelonae (ATCC 14472); experiment: High resolution MIC test, pure culture, 1/10x TSB; details: M. chelonae, 24 hours at 37° C.
Method: (§2) The lowest concentration of microbicide required to inhibit bacteria was determined by a high resolution MIC test. Varying amounts of each microbicide were added to media in a 96-well microtiter plate. The media used for the MIC tests was 10% Trypicase Soy Broth ( 1/10× TSB). […] serial dilutions were performed on a Biomek 2000 Workstation to obtain a range of closely spaced concentrations of microbicides. A cell suspension of stationary phase microorganisms, adjusted to provide 10^6 colony forming units (CFU)/mL in each well for bacteria was added to the microtiter plate. The microtiter plates were incubated for 24 hours at 30° C. for Mycobacterium immunogenum and 37° C. for Mycobacterium chelonae. The presence or absence of microbial growth was determined by measuring the turbidity in each well using a Thermomax microplate reader set at an absorbance of 650 nm. The lowest concentration of compound in which no growth was observed was considered the MIC value for the microbicide. The MIC value for each microbicide was determined from the average of four determinations for bacteria.
(§3) Bacterial strains tested included Mycobacterium chelonae (ATCC 14472) and Mycobacterium immunogenum (ATCC 700505). Mycobacterial cultures were grown overnight at 30° C. (M. immunogenum) or 37° C. (M. chelonae), in a rotary shaking bath in Middlebrook […] with Middlebrook enrichment. A 1:20 dilution of the overnight culture was made into the appropriate test media and inoculated to give a final concentration of 10^6 to 10^7 CFU/ml.

[12] = test system: Mycobacterium immunogenum (ATCC 700505); experiment: High resolution MIC test, pure culture, 1/10x TSB; details: M. immunogenum, 24 hours at 30° C.
Method: as §2, §3

[13] = test system: Mycobacterium chelonae (ATCC 14472); experiment: MBC test, transfer from MIC plates to fresh media; details: M. chelonae, no survivors after 2 days in fresh media
Method: as §3
(§4) MBC tests were conducted by transferring samples from the MIC test samples into fresh media and observing for growth of the culture. Growth was determined as above. In this test using Biomek 2000 Workstation, 10 μl samples taken from the 96-well MIC plates were placed in […] of fresh growth media to determine the number of surviving organisms for the same gradient of biocide concentrations. These plates were incubated and read in the same fashion as the MIC plates.

[14] = test system: Mycobacterium immunogenum (ATCC 700505); experiment: MBC test, transfer from MIC plates to fresh media; details: M. immunogenum, no survivors after 2 days in fresh media
Method: as §3, §4

[15] = Fluid 1, 48 hours, 50% of recommended maximum dose
[16] = Fluid 1, 48 hours, 100% of recommended maximum dose
[17] = Fluid 2, 48 hours, 50% of recommended maximum dose
[18] = Fluid 2, 48 hours, 100% of recommended maximum dose
[19] = Fluid 3, 48 hours, 50% of recommended maximum dose
[20] = Fluid 3, 48 hours, 100% of recommended maximum dose
[21] = Fluid 4, 48 hours, 50% of recommended maximum dose
[22] = Fluid 4, 48 hours, 100% of recommended maximum dose
[23] = Fluid 5, 48 hours, 50% of recommended maximum dose
[24] = Fluid 5, 48 hours, 100% of recommended maximum dose
[25] = Fluid 6, 48 hours, 50% of recommended maximum dose
[26] = Fluid 6, 48 hours, 100% of recommended maximum dose

**Q.** Which results are given for `O=c1[nH]sc2ccccc12` [BIT, 1,2-benzisothiazolin-3-one, reference compound]?
**A.** Log Reduction in Mycobacterial Counts versus Control (no biocide) [1, 15]: 0.00 log; Log Reduction in Mycobacterial Counts versus Control (no biocide) [1, 16]: 0.00 log; Log Reduction in Mycobacterial Counts versus Control (no biocide) [1, 17]: 0.00 log; Log Reduction in Mycobacterial Counts versus Control (no biocide) [1, 18]: 0.00 log; Log Reduction in Mycobacterial Counts versus Control (no biocide) [1, 19]: 0.00 log; Log Reduction in Mycobacterial Counts versus Control (no biocide) [1, 20]: 0.60 log; Log Reduction in Mycobacterial Counts versus Control (no biocide) [1, 21]: 0.00 log; Log Reduction in Mycobacterial Counts versus Control (no biocide) [1, 22]: 0.00 log; Log Reduction in Mycobacterial Counts versus Control (no biocide) [1, 23]: 0.00 log; Log Reduction in Mycobacterial Counts versus Control (no biocide) [1, 24]: 0.06 log; Log Reduction in Mycobacterial Counts versus Control (no biocide) [1, 25]: 0.00 log; Log Reduction in Mycobacterial Counts versus Control (no biocide) [1, 26]: 0.00 log; No. of Fluids with ≧99% Kill (2-log reduction) ([1]; 50% of recommended maximum dose): 0; No. of Fluids with ≧99% Kill (2-log reduction) ([1]; 100% of recommended maximum dose): 0; Minimum Inhibitory Concentration ([2]; pH 7.1, 30° C.): <6.3 ppm; Minimum Inhibitory Concentration ([2]; pH 9.0, 30° C.): 100 ppm; Minimum Inhibitory Concentration ([3]; pH 7.1, 30° C.): 50 ppm; Minimum Inhibitory Concentration ([3]; pH 9.0, 30° C.): 200 ppm; Minimum Inhibitory Concentration ([4]; pH 7.1, 30° C.): 50 ppm; Minimum Inhibitory Concentration ([4]; pH 9.0, 30° C.): 200 ppm; Minimum Inhibitory Concentration ([5]; pH 7.1, 30° C.): 12.5 ppm; Minimum Inhibitory Concentration ([5]; pH 9.0, 30° C.): 25 ppm; Minimum Inhibitory Concentration ([6]; pH 7.1, 30° C.): 3.2 ppm; Minimum Inhibitory Concentration ([6]; pH 9.0, 30° C.): 12.5 ppm; Minimum Inhibitory Concentration ([7]; pH 7.1, 30° C.): 6.3 ppm; Minimum Inhibitory Concentration ([7]; pH 9.0, 30° C.): 25 ppm; Minimum Inhibitory Concentration ([8]; pH 7.1, 30° C.): <1.6 ppm; Minimum Inhibitory Concentration ([8]; pH 9.0, 30° C.): 3.2 ppm; Minimum Inhibitory Concentration ([9]; pH 7.1, 30° C.): <1.6 ppm; Minimum Inhibitory Concentration ([9]; pH 9.0, 30° C.): 6.3 ppm; Minimum Inhibitory Concentration ([10]; pH 7.1, 30° C.): 50 ppm; Minimum Inhibitory Concentration ([10]; pH 9.0, 30° C.): 400 ppm; Minimum Inhibitory Concentration [11]: 63 ppm active; Minimum Inhibitory Concentration [12]: 113 ppm active; Minimum Biocidal Concentration [13]: 75 ppm active; Minimum Biocidal Concentration [14]: 188 ppm active

**Q.** `Cn1sccc1=O` [MI, 2-methyl-4-isothiazolin-3-one] was tested. Which “Log Reduction in Mycobacterial Counts versus Control (no biocide)” value (“Log Reduction … (no biocide)” for short) [1, 15] did it give?
**A.** 3.48 log

**Q.** What about the “Log Reduction … (no biocide)” value [1, 16] of the same compound?
**A.** 5.88 log

**Q.** And the “Log Reduction … (no biocide)” value [1, 17]?
**A.** 3.80 log

**Q.** What about the “Log Reduction … (no biocide)” value [1, 18] of the same compound?
**A.** 5.00 log

**Q.** And the “Log Reduction … (no biocide)” value [1, 19]?
**A.** 0.00 log

**Q.** What about the “Log Reduction … (no biocide)” value [1, 20] of the same compound?
**A.** 2.00 log

**Q.** What about the “Log Reduction … (no biocide)” value [1, 21] of the same compound?
**A.** 2.00 log

**Q.** What about the “Log Reduction … (no biocide)” value [1, 22] of the same compound?
**A.** 3.64 log

**Q.** And the “Log Reduction … (no biocide)” value [1, 23]?
**A.** 0.06 log

**Q.** And the “Log Reduction … (no biocide)” value [1, 24]?
**A.** 1.90 log

**Q.** And the “Log Reduction … (no biocide)” value [1, 25]?
**A.** 1.78 log

**Q.** And the “Log Reduction … (no biocide)” value [1, 26]?
**A.** 3.88 log

**Q.** And the “kill (minimum degree of efficacy)” value ([1]; in all six samples of contaminated fluids, maximum recommended dose)?
**A.** > 90%

**Q.** And the MIC ([2]; pH 7.1, 30° C.)?
**A.** 25 µg/mL (≈ 217 µM)

**Q.** What about the MIC ([2]; pH 9.0, 30° C.) of the same compound?
**A.** 25 µg/mL (≈ 217 µM)

**Q.** And the MIC ([3]; pH 7.1, 30° C.)?
**A.** 100 µg/mL (≈ 868 µM)

**Q.** And the MIC ([3]; pH 9.0, 30° C.)?
**A.** 100 µg/mL (≈ 868 µM)

**Q.** And the MIC ([4]; pH 7.1, 30° C.)?
**A.** 12.5 µg/mL (≈ 109 µM)

**Q.** And the MIC ([4]; pH 9.0, 30° C.)?
**A.** 6.3 µg/mL (≈ 54.7 µM)

**Q.** And the MIC ([5]; pH 7.1, 30° C.)?
**A.** 25 µg/mL (≈ 217 µM)

**Q.** What about the MIC ([5]; pH 9.0, 30° C.) of the same compound?
**A.** 25 µg/mL (≈ 217 µM)

**Q.** What about the MIC ([6]; pH 7.1, 30° C.) of the same compound?
**A.** 12.5 µg/mL (≈ 109 µM)

**Q.** And the MIC ([6]; pH 9.0, 30° C.)?
**A.** 6.3 µg/mL (≈ 54.7 µM)

**Q.** And the MIC ([7]; pH 7.1, 30° C.)?
**A.** 12.5 µg/mL (≈ 109 µM)

**Q.** And the MIC ([7]; pH 9.0, 30° C.)?
**A.** 25 µg/mL (≈ 217 µM)

**Q.** And the MIC ([8]; pH 7.1, 30° C.)?
**A.** 3.2 µg/mL (≈ 27.8 µM)

**Q.** What about the MIC ([8]; pH 9.0, 30° C.) of the same compound?
**A.** 3.2 µg/mL (≈ 27.8 µM)

**Q.** And the MIC ([9]; pH 7.1, 30° C.)?
**A.** 3.2 µg/mL (≈ 27.8 µM)

**Q.** What about the MIC ([9]; pH 9.0, 30° C.) of the same compound?
**A.** 6.3 µg/mL (≈ 54.7 µM)

**Q.** What about the MIC ([10]; pH 7.1, 30° C.) of the same compound?
**A.** 50 µg/mL (≈ 434 µM)

**Q.** What about the MIC ([10]; pH 9.0, 30° C.) of the same compound?
**A.** 50 µg/mL (≈ 434 µM)

**Q.** And the “Minimum Inhibitory Concentration” value [11]?
**A.** 15 ppm active

**Q.** What about the “Minimum Inhibitory Concentration” value [12] of the same compound?
**A.** 50 ppm active

**Q.** What about the “Minimum Biocidal Concentration” value [13] of the same compound?
**A.** 40 ppm active

**Q.** And the “Minimum Biocidal Concentration” value [14]?
**A.** 84 ppm active
